The record followed here is patent US10308644B2, “Heterocyclic compounds as immunomodulators” (Incyte Corporation, priority 2016, dated 2019).

For the test, the target named is PD-1/PD-L1 (Homo sapiens (Human), UniProt Q9NZQ7). Nature of the test: PD-1/PD-L1 Homogeneous Time-Resolved Fluorescence (HTRF) Binding Assay. The settings on record: recombinant human PD-1 (3 nM) and PD-L1 (10 nM), 25° C., PBS pH 7.4. In outline:
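Fc-tagged human PD-1 (25-167, 3 nM) and His-tagged PD-L1 (19-238, 10 nM) preincubated with inhibitor 40 min in PBS pH 7.4, 0.05% Tween-20, 0.1% BSA, 1% DMSO, 25 °C. Binding detected by HTRF (Eu anti-IgG/APC anti-His, 665/620 nm) after 60 min; IC50 from percent control activity.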
(In TR-FRET formats the signal depends on donor and acceptor labels being close together.)

Chain of PD-1/PD-L1 (Q9NZQ7 19-238): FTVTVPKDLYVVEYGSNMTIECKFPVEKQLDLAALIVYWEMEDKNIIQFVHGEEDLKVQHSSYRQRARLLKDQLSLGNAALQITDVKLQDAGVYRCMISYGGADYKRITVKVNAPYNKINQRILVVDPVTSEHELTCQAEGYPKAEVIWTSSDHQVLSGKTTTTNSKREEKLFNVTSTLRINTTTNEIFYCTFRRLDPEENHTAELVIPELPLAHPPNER

The IC50 is the concentration at which inhibition is half-maximal. For `Cc1c(-c2nc3cc(CN4CC[C@@](C)(C(=O)O)C4)cc(C#N)c3o2)cccc1-c1cccc(-c2nc3c(s2)CN(C(=O)CN[C@H]2C[C@H](O)C2)C3)c1C` [Example 229, (R)-1-((7-cyano-2-(3′-(5-(2-(trans-3-hydroxycyclobutylamino)acetyl)-5,6-dihydro-4H-pyrrolo[3,4-d]thiazol-2-yl)-2,2′-dimethylbiphenyl-3-yl)benzo[d]oxazol-5-yl)methyl)-3-methylpyrrolidine-3-carboxylic acid], the IC50 is not above 10 nM.

On to `Cc1c(-c2nc3cc(CN4CC5CC4CC5C(=O)O)cc(C#N)c3o2)cccc1-c1cccc(-c2nc3c(s2)CN(C(=O)CN(C)C)C3)c1C` (centres unmarked) [Example 237, 2-((7-cyano-2-(3′-(5-(2-(dimethylamino)acetyl)-5,6-dihydro-4H-pyrrolo[3,4-d]thiazol-2-yl)-2,2′-dimethylbiphenyl-3-yl)benzo[d]oxazol-5-yl)methyl)-2-azabicyclo[2.2.1]heptane-5-carboxylic acid], for which the 50% inhibitory concentration (IC50) is not above 10 nM.

In the case of `Cc1c(-c2nc3c(o2)CN(C(=O)CCN(C)C)C3)cccc1-c1cccc(-c2nc3cc(CN4CC[C@@H](C(=O)O)C4)cc(C#N)c3o2)c1C` [Example 125, (R)-1-((7-cyano-2-(3′-(5-(3-(dimethylamino)propanoyl)-5,6-dihydro-4H-pyrrolo[3,4-d]oxazol-2-yl)-2,2′-dimethyl-[1,1′-biphenyl]-3-yl)benzo[d]oxazol-5-yl)methyl)pyrrolidine-3-carboxylic acid], the IC50 is not above 10 nM.

Take `Cc1c(-c2nc3cc(CN4CC[C@@](C)(C(=O)O)C4)cc(C#N)c3o2)cccc1-c1cccc(-c2nc3c(s2)CN(C(=O)CN(C)[C@H](C)CO)C3)c1C` [Example 225, (R)-1-((7-cyano-2-(3′-(5-(2-(((R)-1-hydroxypropan-2-yl)(methyl)amino)acetyl)-5,6-dihydro-4H-pyrrolo[3,4-d]thiazol-2-yl)-2,2′-dimethylbiphenyl-3-yl)benzo[d]oxazol-5-yl)methyl)-3-methylpyrrolidine-3-carboxylic acid]: the half-maximal inhibitory concentration (IC50) is not above 10 nM.

As to `Cc1c(Nc2nccc3cc(CN4CC(O)C4)cnc23)cccc1-c1cccc(-c2nc3cc(CN4CC[C@@H](C(=O)O)C4)cc(C#N)c3o2)c1C` [Example 136, (R)-1-((7-cyano-2-(3′-(3-((3-hydroxyazetidin-1-yl)methyl)-1,7-naphthyridin-8-ylamino)-2,2′-dimethylbiphenyl-3-yl)benzo[d]oxazol-5-yl)methyl)pyrrolidine-3-carboxylic acid], the IC50 is not above 10 nM.

For `Cc1c(-c2nc3cc(CN4CC[C@@H](C(=O)O)C4)cc(Cl)c3o2)cccc1-c1cccc(-c2nc3c(s2)CN(C)CC3)c1C` [Example 71, (R)-1-((7-chloro-2-(2,2′-dimethyl-3′-(5-methyl-4,5,6,7-tetrahydrothiazolo[5,4-c]pyridin-2-yl)-[1,1′-biphenyl]-3-yl)benzo[d]oxazol-5-yl)methyl)pyrrolidine-3-carboxylic acid], the 50% inhibitory concentration (IC50) was not above 10 nM.

On to `CCN(C)CC(=O)N1Cc2nc(-c3cccc(-c4cccc(-c5nc6cc(CN7CC[C@@H](C(=O)O)C7)cc(C#N)c6o5)c4C)c3C)oc2C1` [Example 241, (R)-1-((7-cyano-2-(3′-(5-(N-ethyl-N-methylglycyl)-5,6-dihydro-4H-pyrrolo[3,4-d]oxazol-2-yl)-2,2′-dimethyl-[1,1′-biphenyl]-3-yl)benzo[d]oxazol-5-yl)methyl)pyrrolidine-3-carboxylic acid], for which the IC50 was not above 10 nM.

As to `Cc1c(-c2nc3cc(CN4CC[C@@H](O)C4)cc(C#N)c3o2)cccc1-c1cccc(-c2nc3c(s2)CN(C(C)C)CC3)c1C` [Example 121, (R)-5-((3-hydroxypyrrolidin-1-yl)methyl)-2-(3′-(5-isopropyl-4,5,6,7-tetrahydrothiazolo[5,4-c]pyridin-2-yl)-2,2′-dimethyl-[1,1′-biphenyl]-3-yl)benzo[d]oxazole-7-carbonitrile], the IC50 was not above 10 nM.
